One assay has as its target SMYD2 (Homo sapiens, UniProt Q9NRG4). Briefly: biochemical.
The next assay addresses T1, SETD2 (Homo sapiens, UniProt Q9BYW2).
T1 sequence (Q9BYW2 1434-1711): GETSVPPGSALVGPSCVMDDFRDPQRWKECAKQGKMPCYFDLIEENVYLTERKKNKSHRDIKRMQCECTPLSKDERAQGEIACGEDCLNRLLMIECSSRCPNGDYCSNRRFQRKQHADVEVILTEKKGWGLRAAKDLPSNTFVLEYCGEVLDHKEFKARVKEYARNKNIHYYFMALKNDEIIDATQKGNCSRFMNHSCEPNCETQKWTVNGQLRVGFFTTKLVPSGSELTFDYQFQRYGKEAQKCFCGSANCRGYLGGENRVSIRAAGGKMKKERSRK
Description: HotSpot [3H]SAM filter-binding methyltransferase assay. Format: biochemical. Set-up: residues 1434-1711, N-terminal GST fusion, E. coli.

In another assay the target is DNMT1 (Homo sapiens, UniProt P26358). Description: biochemical.
DNMT1, sequence (P26358 whole entry): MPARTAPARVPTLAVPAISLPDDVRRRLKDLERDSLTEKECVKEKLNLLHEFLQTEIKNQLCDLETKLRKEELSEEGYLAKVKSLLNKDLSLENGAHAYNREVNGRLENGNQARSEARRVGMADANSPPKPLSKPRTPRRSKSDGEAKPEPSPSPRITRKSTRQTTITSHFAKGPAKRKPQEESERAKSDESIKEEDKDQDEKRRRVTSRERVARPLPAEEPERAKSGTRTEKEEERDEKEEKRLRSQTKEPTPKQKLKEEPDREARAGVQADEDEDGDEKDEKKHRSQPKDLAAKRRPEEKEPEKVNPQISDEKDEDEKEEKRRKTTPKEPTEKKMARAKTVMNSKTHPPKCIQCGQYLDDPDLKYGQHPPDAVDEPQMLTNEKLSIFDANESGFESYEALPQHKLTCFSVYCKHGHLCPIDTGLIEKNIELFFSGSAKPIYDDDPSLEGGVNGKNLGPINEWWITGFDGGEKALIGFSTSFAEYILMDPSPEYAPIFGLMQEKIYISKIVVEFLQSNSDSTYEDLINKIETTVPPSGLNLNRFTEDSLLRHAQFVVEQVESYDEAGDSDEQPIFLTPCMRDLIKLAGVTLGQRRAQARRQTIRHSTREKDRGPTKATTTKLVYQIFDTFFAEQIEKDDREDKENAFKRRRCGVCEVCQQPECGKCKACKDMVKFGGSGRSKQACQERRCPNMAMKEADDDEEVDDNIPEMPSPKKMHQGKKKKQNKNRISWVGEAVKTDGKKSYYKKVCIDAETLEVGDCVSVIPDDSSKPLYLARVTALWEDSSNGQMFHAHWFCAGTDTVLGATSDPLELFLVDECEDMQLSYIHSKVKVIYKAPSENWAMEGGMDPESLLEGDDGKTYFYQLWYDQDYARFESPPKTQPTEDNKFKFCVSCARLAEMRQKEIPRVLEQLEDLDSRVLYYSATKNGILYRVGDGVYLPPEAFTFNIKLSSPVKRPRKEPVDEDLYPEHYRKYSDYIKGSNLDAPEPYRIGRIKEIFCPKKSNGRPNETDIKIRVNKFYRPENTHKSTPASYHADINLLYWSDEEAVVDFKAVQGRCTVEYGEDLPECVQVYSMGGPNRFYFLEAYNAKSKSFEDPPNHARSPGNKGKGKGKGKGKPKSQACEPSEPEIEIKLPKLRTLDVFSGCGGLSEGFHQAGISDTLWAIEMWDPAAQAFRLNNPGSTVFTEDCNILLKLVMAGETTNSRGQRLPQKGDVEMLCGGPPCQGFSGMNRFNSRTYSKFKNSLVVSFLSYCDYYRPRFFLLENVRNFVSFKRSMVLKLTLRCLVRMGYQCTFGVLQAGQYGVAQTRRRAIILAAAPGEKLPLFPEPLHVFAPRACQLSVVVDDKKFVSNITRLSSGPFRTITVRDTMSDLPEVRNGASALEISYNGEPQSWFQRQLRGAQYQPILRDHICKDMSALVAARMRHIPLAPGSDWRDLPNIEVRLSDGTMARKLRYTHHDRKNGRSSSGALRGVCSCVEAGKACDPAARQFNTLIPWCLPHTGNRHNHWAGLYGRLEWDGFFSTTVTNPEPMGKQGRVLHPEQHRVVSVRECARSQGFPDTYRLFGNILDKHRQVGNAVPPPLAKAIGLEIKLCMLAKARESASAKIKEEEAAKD
The target of the next assay is T2, NSD2 (Homo sapiens, UniProt O96028, E1099K).
T2 construct: full length (residues 2-1365), N-terminal His tag, insect cell/baculovirus
T2 sequence (O96028 2-1365 E1099K): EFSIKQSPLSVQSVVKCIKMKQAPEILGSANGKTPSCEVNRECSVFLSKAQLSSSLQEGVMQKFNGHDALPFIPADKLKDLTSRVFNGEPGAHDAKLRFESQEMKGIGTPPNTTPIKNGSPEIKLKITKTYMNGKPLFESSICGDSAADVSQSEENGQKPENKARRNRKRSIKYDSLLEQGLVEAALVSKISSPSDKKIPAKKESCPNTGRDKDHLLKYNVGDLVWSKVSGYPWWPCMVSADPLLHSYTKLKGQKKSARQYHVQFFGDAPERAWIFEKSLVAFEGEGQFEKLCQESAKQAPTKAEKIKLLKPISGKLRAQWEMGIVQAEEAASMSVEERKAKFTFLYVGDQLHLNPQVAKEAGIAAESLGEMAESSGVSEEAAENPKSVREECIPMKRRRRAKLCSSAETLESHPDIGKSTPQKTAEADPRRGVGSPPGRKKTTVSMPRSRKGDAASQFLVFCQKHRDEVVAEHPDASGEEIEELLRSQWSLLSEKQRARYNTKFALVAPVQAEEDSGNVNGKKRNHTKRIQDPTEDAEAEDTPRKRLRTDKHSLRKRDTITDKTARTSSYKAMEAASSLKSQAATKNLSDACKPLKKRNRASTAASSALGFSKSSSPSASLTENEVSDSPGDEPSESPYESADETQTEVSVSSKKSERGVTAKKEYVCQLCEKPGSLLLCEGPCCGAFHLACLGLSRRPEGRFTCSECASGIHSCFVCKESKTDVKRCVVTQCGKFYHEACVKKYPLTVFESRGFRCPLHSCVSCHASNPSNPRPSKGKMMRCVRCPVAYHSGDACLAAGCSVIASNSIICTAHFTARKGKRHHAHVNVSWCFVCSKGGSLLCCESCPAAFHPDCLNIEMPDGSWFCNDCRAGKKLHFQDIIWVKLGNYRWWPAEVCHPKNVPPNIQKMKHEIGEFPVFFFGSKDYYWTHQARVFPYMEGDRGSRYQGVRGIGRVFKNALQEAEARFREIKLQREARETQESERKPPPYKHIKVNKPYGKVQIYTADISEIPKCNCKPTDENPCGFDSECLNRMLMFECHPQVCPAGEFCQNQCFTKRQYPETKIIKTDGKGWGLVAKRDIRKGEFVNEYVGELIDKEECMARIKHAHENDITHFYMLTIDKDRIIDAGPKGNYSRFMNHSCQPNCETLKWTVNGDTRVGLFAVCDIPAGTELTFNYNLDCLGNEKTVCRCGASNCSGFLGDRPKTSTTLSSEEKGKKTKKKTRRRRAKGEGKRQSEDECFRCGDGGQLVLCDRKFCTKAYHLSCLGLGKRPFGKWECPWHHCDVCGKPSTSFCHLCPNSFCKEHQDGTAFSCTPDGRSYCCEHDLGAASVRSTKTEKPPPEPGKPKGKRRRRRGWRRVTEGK
Description: HotSpot [3H]SAM filter-binding methyltransferase assay. Format: biochemical.

Another assay concerns the target T3, NSD3 (Homo sapiens, UniProt Q9BZ95).
T3 sequence (Q9BZ95 1021-1322): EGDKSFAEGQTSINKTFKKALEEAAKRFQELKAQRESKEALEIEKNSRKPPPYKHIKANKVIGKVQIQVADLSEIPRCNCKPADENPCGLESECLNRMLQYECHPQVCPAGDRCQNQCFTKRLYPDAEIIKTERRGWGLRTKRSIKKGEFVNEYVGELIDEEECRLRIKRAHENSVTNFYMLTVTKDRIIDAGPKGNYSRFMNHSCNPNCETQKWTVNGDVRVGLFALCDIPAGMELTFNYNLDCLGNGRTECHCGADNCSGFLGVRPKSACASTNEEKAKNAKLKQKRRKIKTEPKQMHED
The description is as above. The class given is biochemical. Set-up: residues 1021-1322, GST fusion, E. coli. Particulars: nucleosomes, […] SAM, Bicine pH […] DTT, […] °C, single experiment.

The next assay addresses ASH1L (Homo sapiens, UniProt Q9NR48). The description is as above. Format: biochemical. Set-up: residues 2046-2330, N-terminal His tag, E. coli.
Another assay concerns the target DNMT3a (Homo sapiens, UniProt Q9Y6K1). Description: biochemical.
The next assay deals with T4, SET8 (Homo sapiens, UniProt Q9NQR1).
T4 construct: gene KMT5A
T4 sequence (Q9NQR1 1-393): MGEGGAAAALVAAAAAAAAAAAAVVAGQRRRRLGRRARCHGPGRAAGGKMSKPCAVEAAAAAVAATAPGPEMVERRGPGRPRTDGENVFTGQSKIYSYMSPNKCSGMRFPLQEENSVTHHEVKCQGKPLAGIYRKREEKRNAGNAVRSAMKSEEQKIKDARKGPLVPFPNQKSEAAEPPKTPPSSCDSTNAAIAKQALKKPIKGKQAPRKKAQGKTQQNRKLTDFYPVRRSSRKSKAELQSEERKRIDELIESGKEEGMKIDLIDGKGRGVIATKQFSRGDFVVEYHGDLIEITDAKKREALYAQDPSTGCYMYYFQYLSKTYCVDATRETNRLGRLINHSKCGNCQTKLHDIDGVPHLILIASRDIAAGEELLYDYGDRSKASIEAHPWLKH
Briefly: biochemical.

[1] abbreviates: read-out: DA3003-1 IC50, inhibitor.
The mark [2] stands for this setting: nucleosomes, […] SAM, pH […] MgCl2, […] DTT, […] °C, single experiment.

Where two headings read alike, the source gives them in different places.

In general, IC50 refers to the midpoint of a concentration-inhibition curve.

SMYD2, sequence (Q9NRG4 whole entry): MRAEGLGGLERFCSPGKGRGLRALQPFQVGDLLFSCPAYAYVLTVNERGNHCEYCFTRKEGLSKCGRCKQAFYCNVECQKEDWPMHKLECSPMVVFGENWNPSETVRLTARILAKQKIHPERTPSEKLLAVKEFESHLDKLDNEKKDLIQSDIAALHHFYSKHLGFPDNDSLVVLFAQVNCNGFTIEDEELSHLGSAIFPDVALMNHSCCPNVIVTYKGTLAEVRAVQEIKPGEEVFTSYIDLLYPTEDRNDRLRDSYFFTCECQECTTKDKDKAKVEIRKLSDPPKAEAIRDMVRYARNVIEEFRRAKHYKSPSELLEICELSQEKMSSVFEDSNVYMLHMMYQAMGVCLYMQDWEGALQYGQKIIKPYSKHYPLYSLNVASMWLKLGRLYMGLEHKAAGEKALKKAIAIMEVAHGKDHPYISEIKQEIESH
DNMT3a, sequence (Q9Y6K1 whole entry, looked up): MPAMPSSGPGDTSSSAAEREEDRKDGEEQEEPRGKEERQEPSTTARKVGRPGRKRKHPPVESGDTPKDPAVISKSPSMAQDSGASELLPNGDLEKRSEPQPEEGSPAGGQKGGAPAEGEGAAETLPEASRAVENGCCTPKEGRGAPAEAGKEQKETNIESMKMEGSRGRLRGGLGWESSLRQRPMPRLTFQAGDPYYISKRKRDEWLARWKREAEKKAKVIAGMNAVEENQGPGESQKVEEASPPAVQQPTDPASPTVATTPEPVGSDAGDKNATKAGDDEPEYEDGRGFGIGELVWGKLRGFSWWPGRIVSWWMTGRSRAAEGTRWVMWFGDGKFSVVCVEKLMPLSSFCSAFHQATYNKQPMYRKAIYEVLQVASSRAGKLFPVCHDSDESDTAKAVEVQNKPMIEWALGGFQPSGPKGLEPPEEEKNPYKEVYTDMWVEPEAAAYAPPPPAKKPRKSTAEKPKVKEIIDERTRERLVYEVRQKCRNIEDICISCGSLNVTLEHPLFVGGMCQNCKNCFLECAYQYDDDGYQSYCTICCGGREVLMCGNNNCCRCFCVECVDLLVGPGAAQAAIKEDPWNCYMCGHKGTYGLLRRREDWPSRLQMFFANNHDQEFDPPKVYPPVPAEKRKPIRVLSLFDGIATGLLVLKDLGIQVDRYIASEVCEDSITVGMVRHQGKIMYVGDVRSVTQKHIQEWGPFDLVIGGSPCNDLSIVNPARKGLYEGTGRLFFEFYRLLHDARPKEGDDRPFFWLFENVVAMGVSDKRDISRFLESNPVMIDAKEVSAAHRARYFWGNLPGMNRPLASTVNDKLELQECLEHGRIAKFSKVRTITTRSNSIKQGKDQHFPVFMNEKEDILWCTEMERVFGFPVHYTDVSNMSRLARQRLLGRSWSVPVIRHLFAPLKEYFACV

With `O=C1C(Cl)=C(NCCN2CCOCC2)C(=O)c2ncccc21` [DA3003-1], the IC50 was determined as 1.7 µM on SMYD2 (setting [1]); 0.21 µM at SETD2; 1.7 µM on DNMT1 (setting [1]); 0.11 µM at NSD2 (setting [2]); 0.26 µM at NSD3; 0.2 µM at ASH1L. Moreover, the IC50 on DNMT3a (setting [1]) was 1.1 µM; on SET8 (setting [1]), 4.4 µM.

As for `CC1(C)CCC(CN2CCN(c3ccc(C(=O)NS(=O)(=O)c4ccc(NCC5CCOCC5)c([N+](=O)[O-])c4)c(Oc4cnc5[nH]ccc5c4)c3)CC2)=C(c2ccc(Cl)cc2)C1` [ABT-199], the IC50 was 44 µM against SMYD2; 3.3 µM on SETD2; 44 µM against DNMT1; 2.2 µM on NSD2; 1.3 µM at NSD3; 3.3 µM at ASH1L. Besides, the figures for the IC50 against DNMT3a and at SET8 were 18 µM and 5.3 µM, respectively.

Turning to `COc1cccc(-n2nc(C(=O)O)cc2-c2ccc(C3CCCCC3)c(Cl)c2)c1` [TC LPA5 4], the IC50 against SMYD2 was determined as 21 µM; on SETD2 (setting [2]) it was 13 µM; at DNMT1, 12 µM; at NSD2 (setting [2]), 7.2 µM; at NSD3 it was 2.3 µM; at ASH1L (setting [2]), 9.2 µM. The IC50 on DNMT3a was 16 µM; at SET8 it was 44 µM.
